In article PMC12249833, “Discovery and Characterization of Novel Non-Hydroxamate HDAC11 Inhibitors” (International Journal of Molecular Sciences, 2025):
Read-outs that look alike come from different tables or passages of the source.

What was measured:
HDAC11 [1] = biological target: T1, HDAC11 (Homo sapiens, UniProt Q96DB2); experiment: HDAC11 fluorimetric enzyme activity assay (Boc-Lys(TFA)-AMC), dose-response; format: biochemical
T1 construct: His6 (N); SUMO (N); made in house; host or cells: E. coli BL21 (DE3)
T1 sequence (Q96DB2 1-347): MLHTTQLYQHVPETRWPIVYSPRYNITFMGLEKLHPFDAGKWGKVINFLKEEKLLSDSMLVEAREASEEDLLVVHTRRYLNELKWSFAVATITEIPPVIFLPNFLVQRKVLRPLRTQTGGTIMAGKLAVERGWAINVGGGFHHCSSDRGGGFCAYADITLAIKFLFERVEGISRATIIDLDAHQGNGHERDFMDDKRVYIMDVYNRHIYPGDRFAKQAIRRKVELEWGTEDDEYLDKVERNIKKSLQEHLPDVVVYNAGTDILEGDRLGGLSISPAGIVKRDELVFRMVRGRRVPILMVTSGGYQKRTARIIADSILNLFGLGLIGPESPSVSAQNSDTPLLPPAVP

HDAC1 = HDAC1 (Homo sapiens, UniProt Q13547); experiment: Isoenzyme selectivity, HDAC1 dose-response; format: biochemical; conditions: means ± standard deviation (n = 3)
HDAC6 = biological target: T2, HDAC6 (Homo sapiens, UniProt Q9UBN7); experiment: Isoenzyme selectivity, HDAC6 dose-response; format: biochemical; conditions: means ± standard deviation (n = 3)
T2 sequence (Q9UBN7 1-1215): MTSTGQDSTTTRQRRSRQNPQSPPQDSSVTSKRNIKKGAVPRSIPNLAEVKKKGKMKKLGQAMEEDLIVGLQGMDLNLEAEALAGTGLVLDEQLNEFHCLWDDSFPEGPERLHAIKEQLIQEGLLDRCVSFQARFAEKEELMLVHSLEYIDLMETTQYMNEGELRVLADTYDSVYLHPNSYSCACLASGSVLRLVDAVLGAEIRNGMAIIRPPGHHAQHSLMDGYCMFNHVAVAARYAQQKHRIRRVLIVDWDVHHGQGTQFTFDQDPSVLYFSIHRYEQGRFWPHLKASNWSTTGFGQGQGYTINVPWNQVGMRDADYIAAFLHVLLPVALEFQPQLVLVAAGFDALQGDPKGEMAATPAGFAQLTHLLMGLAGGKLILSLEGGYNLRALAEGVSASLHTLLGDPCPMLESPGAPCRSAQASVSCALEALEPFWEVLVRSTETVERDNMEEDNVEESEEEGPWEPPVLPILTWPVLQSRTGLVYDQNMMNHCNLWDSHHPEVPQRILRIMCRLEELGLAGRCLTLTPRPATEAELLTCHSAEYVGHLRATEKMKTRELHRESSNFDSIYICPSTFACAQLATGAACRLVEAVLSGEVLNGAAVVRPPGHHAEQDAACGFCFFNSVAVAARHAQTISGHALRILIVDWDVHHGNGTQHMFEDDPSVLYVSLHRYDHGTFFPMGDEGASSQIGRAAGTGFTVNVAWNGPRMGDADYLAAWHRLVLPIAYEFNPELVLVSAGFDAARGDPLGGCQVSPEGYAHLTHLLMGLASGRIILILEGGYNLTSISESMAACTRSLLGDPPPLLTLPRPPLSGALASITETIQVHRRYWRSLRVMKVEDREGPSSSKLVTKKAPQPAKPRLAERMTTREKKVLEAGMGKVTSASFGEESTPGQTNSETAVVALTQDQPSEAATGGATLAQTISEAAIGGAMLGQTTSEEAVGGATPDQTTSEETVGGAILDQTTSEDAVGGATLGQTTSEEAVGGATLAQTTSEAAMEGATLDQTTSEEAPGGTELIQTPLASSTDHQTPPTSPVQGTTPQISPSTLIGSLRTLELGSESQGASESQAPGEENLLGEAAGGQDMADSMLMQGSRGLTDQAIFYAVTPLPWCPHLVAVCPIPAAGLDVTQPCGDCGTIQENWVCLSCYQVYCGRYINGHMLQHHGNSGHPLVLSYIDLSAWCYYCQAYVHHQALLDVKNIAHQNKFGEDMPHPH

HDAC11 [2] = biological target: T1, HDAC11; experiment: High-throughput screening, residual HDAC11 enzyme activity; format: biochemical; conditions: final compound concentration 10 µM
HDAC11 [3] = biological target: T1, HDAC11; conditions: Figure 1 / text; read-out: HDAC11 IC50 of known inhibitors; cited from earlier work
HDAC11 [4] = biological target: T1, HDAC11; design: method as in PMID 31264832; conditions: 50 µM; cited from earlier work
HDAC4 = HDAC4 (Homo sapiens, UniProt P56524); experiment: Isoenzyme selectivity, HDAC4 dose-response; format: biochemical; conditions: means ± standard deviation (n = 3)
HDAC8 = biological target: T3, HDAC8 (Homo sapiens, UniProt Q9BY41); experiment: Isoenzyme selectivity, HDAC8 dose-response; format: biochemical; conditions: means ± standard deviation (n = 3)
T3 sequence (Q9BY41 1-377): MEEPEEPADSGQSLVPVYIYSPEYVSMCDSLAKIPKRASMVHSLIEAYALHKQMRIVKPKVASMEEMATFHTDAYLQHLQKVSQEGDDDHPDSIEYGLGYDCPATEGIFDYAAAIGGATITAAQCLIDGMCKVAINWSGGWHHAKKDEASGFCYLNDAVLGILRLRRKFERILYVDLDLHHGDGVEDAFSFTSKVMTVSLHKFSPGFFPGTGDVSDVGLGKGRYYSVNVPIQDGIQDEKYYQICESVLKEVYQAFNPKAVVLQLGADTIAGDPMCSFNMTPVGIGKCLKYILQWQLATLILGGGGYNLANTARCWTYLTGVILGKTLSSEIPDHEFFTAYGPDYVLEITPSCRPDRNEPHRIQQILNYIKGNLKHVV

HEK293 normal cells = experiment: Cytotoxicity testing (XTT) against HEK293; format: cell-based; conditions: HEK293, up to 100 uM, 24h
Protocol: (§1) Figure S10: Cytotoxicity testing of indicated compound against HEK293 cell. 5000 HEK293 cells were seeded in 96-Well plates. After 48h Inkubationszeit at 37°C and 5% CO2 in DMEM supplemented with 10% FBS and 1% Pen/Strep. A serial 1:2 dilution starting with 100 uM of compounds was added and incubated for a further 24h. XTT reagent was added and incubated for 4h. Afterwards the absorbance was measure at 450 nm and 600 nm. Data points are mean values ± standard error, n ≥ 6.
(§2) 9SPC045H03 in the enzyme activity assay is not due to compound-substrate interference. […]

HDAC11 [5] = biological target: T1, HDAC11; experiment: Rapid dilution experiment (reversibility of binding); format: biochemical; conditions: 10× IC50, 100-fold rapid dilution, recovery of enzyme activity
Protocol: The inhibitors were evaluated for reversible inhibition in an enzyme activity assay. […] After equilibration for 1 h at 30 °C, this solution is diluted 100-fold directly into 80 μM of the substrate Boc-Lys(TFA)-AMC. After a further hour of incubation, the reaction was stopped as indicated in the enzyme activity assay section.

HDAC11 [6] = biological target: T1, HDAC11; experiment: Time-dependent IC50 / pre-incubation one-step enzyme assay; format: biochemical; conditions: pre-incubation for different times up to 60 min
[7] = Cytotoxicity testing (XTT) against HEK293; format: cell-based; conditions: human, HEK293 cells, HEK293, 100 µM compound concentration, read-out: Cell viability
Protocol: as §1, §2

[8] = means ± standard deviation (n = 3), read-out: IC50 against HDAC11

Chain of HDAC1 (Q13547 whole entry, species assumed): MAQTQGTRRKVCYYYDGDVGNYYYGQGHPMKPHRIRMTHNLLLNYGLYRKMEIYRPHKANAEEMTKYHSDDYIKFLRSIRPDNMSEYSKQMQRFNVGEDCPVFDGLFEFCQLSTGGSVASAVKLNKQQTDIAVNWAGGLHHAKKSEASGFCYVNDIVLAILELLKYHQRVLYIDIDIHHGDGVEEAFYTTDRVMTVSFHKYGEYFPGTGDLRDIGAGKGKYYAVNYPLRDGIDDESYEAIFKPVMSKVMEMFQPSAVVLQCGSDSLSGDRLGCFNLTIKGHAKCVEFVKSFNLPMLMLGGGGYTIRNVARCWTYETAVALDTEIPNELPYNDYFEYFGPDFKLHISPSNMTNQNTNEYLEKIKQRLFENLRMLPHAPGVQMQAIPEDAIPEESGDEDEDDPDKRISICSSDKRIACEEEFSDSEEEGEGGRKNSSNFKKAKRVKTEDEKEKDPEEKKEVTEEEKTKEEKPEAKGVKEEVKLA
Chain of HDAC4 (P56524 whole entry, species assumed): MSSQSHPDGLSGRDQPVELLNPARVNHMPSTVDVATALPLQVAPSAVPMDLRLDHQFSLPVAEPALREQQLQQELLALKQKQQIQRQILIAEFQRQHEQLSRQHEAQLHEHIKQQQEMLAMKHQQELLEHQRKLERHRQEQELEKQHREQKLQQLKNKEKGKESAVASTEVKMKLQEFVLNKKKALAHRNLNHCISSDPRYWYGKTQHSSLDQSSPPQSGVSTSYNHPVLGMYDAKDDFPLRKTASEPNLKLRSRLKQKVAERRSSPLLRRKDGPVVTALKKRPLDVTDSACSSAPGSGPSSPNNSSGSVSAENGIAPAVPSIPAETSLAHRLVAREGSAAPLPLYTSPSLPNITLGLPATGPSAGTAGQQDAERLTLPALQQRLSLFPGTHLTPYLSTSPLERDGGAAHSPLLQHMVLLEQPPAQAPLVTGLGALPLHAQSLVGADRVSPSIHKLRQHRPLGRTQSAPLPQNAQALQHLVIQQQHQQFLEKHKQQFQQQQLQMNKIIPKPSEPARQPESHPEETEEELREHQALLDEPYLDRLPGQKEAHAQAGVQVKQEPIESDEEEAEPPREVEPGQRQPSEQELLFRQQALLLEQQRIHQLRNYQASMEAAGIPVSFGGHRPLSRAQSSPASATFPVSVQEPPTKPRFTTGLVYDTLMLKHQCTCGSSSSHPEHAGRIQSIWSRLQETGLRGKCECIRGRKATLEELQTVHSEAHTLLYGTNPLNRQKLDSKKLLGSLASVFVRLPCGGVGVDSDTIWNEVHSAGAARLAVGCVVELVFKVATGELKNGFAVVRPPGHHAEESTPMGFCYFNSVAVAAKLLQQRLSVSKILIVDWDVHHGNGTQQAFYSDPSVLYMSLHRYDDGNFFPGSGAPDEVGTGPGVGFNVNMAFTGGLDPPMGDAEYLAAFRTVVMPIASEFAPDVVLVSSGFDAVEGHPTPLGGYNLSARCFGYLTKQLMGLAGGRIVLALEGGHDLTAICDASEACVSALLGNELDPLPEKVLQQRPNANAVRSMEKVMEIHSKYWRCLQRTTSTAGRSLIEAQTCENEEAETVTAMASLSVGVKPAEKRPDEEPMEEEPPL

## Cc1cccc2nc(SCc3ccc(C(=O)NO)cc3)n(-c3ccccc3)c(=O)c12 [9HDA020C06]
HDAC11 [1]; [8]
  IC50: 1.1 ± 0.4 µM
HDAC1
  IC50: 1.4 ± 0.4 µM
HDAC6
  IC50: 0.2 ± 0.1 µM
HDAC11 [2]
  Res. HDAC activity (residual HDAC11 activity): 58%

## CCCCCCCCCCCCCCCCNNC(=O)c1cccs1 [SIS17]
HDAC11 [3]
  IC50: 0.85 µM
HDAC11 [4]
  Degree of myristoylation of the HDAC11 substrate SHMT2 in cells: significantly increased

## Cc1cccc2nc(SCc3ccc(C(=O)NO)cc3)n(-c3ccccc3F)c(=O)c12 [9HDA020C07]
HDAC11 [1]; [8]
  IC50: 1.5 ± 0.3 µM

## O=C(NO)c1ccc(CSc2nc3cc(Cl)ccc3c(=O)n2-c2ccccc2F)cc1 [9HDA020C04]
HDAC11 [1]; [8]
  IC50: 2 ± 0.5 µM

## N#C/C(=C\c1ccc(O)c(O)c1)C(=O)NCc1ccccc1 [9LOP015E07, Tyrphostin AG 490]
HDAC11 [1]
  IC50: 14 ± 3 µM
HDAC11 [2]
  Res. HDAC activity (residual HDAC11 activity): 65%

## O=C(NO)c1ccc(CSc2nc3ccccc3c(=O)n2-c2ccccc2F)cc1 [9HDA020B11]
HDAC11 [1]; [8]
  IC50: 4.1 ± 0.5 µM

## Cc1cccc2nc(SCc3ccc(C(=O)NO)cc3)n(-c3ccc(Cl)cc3)c(=O)c12 [9HDA020C09]
HDAC11 [1]; [8]
  IC50: 1.9 ± 0.4 µM
HDAC1
  IC50: 2.3 ± 0.5 µM
HDAC4
  IC50: 0.9 ± 0.4 µM
HDAC6
  IC50: 0.9 ± 0.3 µM
HDAC8
  IC50: 6 ± 1 µM

## O=C1NC(=O)/C(=C/c2ccc(O)nc2)S1 [9HDA018E08]
HDAC11 [1]; [8]
  IC50: 19 ± 2 µM

## N#C/C(=C\c1ccc(O)c(O)c1)C(=O)NCCCc1ccccc1 [9LOP015D09, Tyrphostin AG 555]
HDAC11 [1]; [8]
  IC50: 4.3 ± 3 µM
HDAC11 [2]
  Res. HDAC activity (residual HDAC11 activity): 49%

## O=C(NO)c1ccc(CSc2nc3ccccc3c(=O)n2-c2ccccc2)cc1 [9HDA020B04]
HDAC11 [1]; [8]
  IC50: 2.1 ± 0.2 µM

## O=C(CCc1ccccc1)c1c(O)cc(O)cc1O [9SPC036F04]
HDAC11 [1]; [8]
  IC50: > 50 µM

## O=C(NO)c1ccc(CSc2nc3ccccc3c(=O)n2-c2cccc(Cl)c2)cc1 [9HDA020B10]
HDAC11 [1]; [8]
  IC50: 2 ± 0.3 µM

## Cc1cccc(-n2c(SCc3ccc(C(=O)NO)cc3)nc3ccccc3c2=O)c1 [9HDA020B09]
HDAC11 [1]; [8]
  IC50: 1.6 ± 0.3 µM

## Cc1ccccc1-n1c(SCc2ccc(C(=O)NO)cc2)nc2cccc(C)c2c1=O [9HDA020C08]
HDAC11 [1]; [8]
  IC50: 3.5 ± 0.8 µM

## O=C(/C=C/c1ccc(O)c(O)c1)OCCc1ccccc1 [CAPE, caffeic acid phenethyl ester]
HDAC11 [1]; [8]
  IC50: 1.5 µM
HDAC1
  IC50: 22 ± 5 µM
HDAC4
  IC50: 68 ± 30 µM
HDAC6
  IC50: > 70 µM
HDAC8
  IC50: 7 ± 2 µM
HDAC11 [2]
  Res. HDAC activity (residual HDAC11 activity): 46%
HEK293 normal cells
  Cytotoxic effect (in words): did not show cytotoxic effects
HDAC11 [5]
  Reversibility of binding to HDAC11: reversible binding
HDAC11 [6]
  Time-dependence of HDAC11 inhibition: no time-dependent inhibition

## Oc1c(C(Nc2cccc(C(F)(F)F)c2)c2ccncc2)ccc2cccnc12 (centres unmarked) [9SPC045H03]
HDAC11 [1]; from IC50 values of Table 2
  Selectivity for HDAC11 against HDAC8: about 3 fold
  Selectivity for HDAC11 with respect to HDACs 1, 4, and 6: more than 30 fold
HDAC11 [1]; [8]
  IC50: 2.3 ± 0.5 µM
HDAC1
  IC50: > 70 µM
HDAC4
  IC50: > 70 µM
HDAC6
  IC50: 67 µM
HDAC8
  IC50: 13 ± 5 µM
[7]
  viability at 24 h, 100 µM: 50%
HEK293 normal cells
  Cytotoxic effect (in words): moderately toxic effect
HDAC11 [5]
  Reversibility of binding to HDAC11: reversible binding
HDAC11 [6]
  Time-dependence of HDAC11 inhibition: no time-dependent inhibition

## CCc1ccc(-n2c(SCc3ccc(C(=O)NO)cc3)nc3cccc(C)c3c2=O)cc1 [9HDA020B06]
HDAC11 [1]; [8]
  IC50: 1.6 ± 0.2 µM

## O=C(NO)c1ccc(CSc2nc3ccccc3c(=O)n2-c2ccc(Br)cc2)cc1 [9HDA020B07]
HDAC11 [1]; [8]
  IC50: 2.6 ± 0.4 µM

## O=C(C=Cc1ccc(N=Cc2ccc([N+](=O)[O-])cc2)cc1)OCCc1ccccc1 [9SPC056H05]
HDAC11 [2]
  Res. HDAC activity (residual HDAC11 activity): 97%

## Cc1ccc(-n2c(SCc3ccc(C(=O)NO)cc3)nc3ccccc3c2=O)cc1 [9HDA020B05]
HDAC11 [1]; [8]
  IC50: 2 ± 0.2 µM

## O=C(O)/C=C/c1ccc(O)c(O)c1 [9LOP003E09, caffeic acid]
HDAC11 [1]; [8]
  IC50: > 100 µM

## Cc1ccc(-n2c(SCc3ccc(C(=O)NO)cc3)nc3ccccc3c2=O)c(C)c1 [9HDA020B08]
HDAC11 [1]; [8]
  IC50: 2 ± 0.2 µM
